Structures can show the parent of a compound that is named as a salt.

One assay deals with apomorphine-induced climbing. Nature of the assay: climbing mice assay: block of apomorphine-induced climbing (antipsychotic activity). The conditions noted are these: Mus musculus, ip, read-out: Antipsychotic Activity ED50. It counts as in vivo, CK-1 male mice. The procedure:
The subject CK-1 male mice (23-27 grams) are […] under standard laboratory conditions. The mice are individually placed in wire mesh stick cages (4"×4"10") and are allowed one hour for adaptation and exploration of the new environment.
For evaluation of climbing, 3 readings are taken at 10, 20, and 30 minutes after apomorphine administration according to the following scale:
2 paws on wall (rearing)
4 paws on the wall (full climbing)
Mice consistently climbing before the injections of apomorphine will be discarded.
With full-developed apomorphine climbing, the animals are hanging onto the cage walls, rather motionless, over long periods of time. By contrast, climbs due to mere motor stimulation usually only last a few seconds.
The climbing scores are individually totaled (maximal score: 6 per mouse over 3 readings) and the total score of the control group (vehicle intraperitoneally-apomorphine subcutaneously) is set 100%.
With `O=C(CCCN1CCC(O)(c2ccc(Cl)cc2)CC1)c1ccc(F)cc1` [Haloperidol, reference compound], the ED50 (usually the dose at which the effect has come halfway, by size or by number of responders) is 0.11 mg/kg.

Staying with this assay, now noted: Mus musculus, ip; mice; intraperitoneal 30 minutes prior to apomorphine 1.5 mg/kg s.c.; climbing readings at 10, 20, 30 minutes; linear regression; read-out: Antipsychotic Activity ED50.
`COc1ccccc1N1CCN(C/C=C/CN2C(=O)c3ccccc3C2=O)CC1` [E-1-(N-Phthalimido)-4-[4-(2-methoxyphenyl)-1-piperazinyl]-2-butene hydrochloride hemihydrate]: the ED50 was found to be 7.3 mg/kg.
Still for that read-out and setting: as for `CCN1CCCC1CNC(=O)c1cc(S(N)(=O)=O)ccc1OC` (stereo not drawn) [Sulpiride, reference compound], the figure is 4.5 mg/kg; as for `COc1ccccc1N1CCN(C/C=C\CN2C(=O)CSC2=O)CC1` [Z-1-(3-Thiazolidine-2,4-dione)-4-[4-(2-methoxyphenyl)-1-piperazinyl]-2-butene dihydrochloride], 19.8 mg/kg; as for `COc1ccccc1N1CCN(C/C=C\CN2C(=O)c3ccccc3C2=O)CC1` [Z-1-(N-Phthalimido)-4-[4-(2-methoxyphenyl)-4-piperazinyl)]-2-butene dihydrochloride], 10.3 mg/kg.
The same measure, in the same setting: as for `COc1ccccc1N1CCN(C/C=C\CN2C(=O)c3ccc(Cl)cc3C2=O)CC1` [Z-1-N-(4-Chlorophthalimido)-4-[4-(2-methoxyphenyl)-1-piperazinyl]-2-butene dihydrochloride hemihydrate], the figure is 15.4 mg/kg.

The values are drawn from US5334715A, “1-piperazinyl-2-butenes and -2-butynes” (Hoechst-Roussel Pharmaceuticals Inc., priority 1993, dated 1994).
